Data as given in PubChem BioAssay (NCI).
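Test compounds were applied to cells in 96-well plates for 48 hours at 5 doses. The concentration for full growth arrest is given as TGI.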

How the values were obtained:
Assay in all cases: NCI tumour cell line growth inhibition, 48 h
786-0 renal = test system: 786-0 renal
SNB-75 CNS = test system: SNB-75 CNS
OVCAR-4 ovarian = test system: OVCAR-4 ovarian
NCI-H23 lung = test system: NCI-H23 lung
TK-10 renal = test system: TK-10 renal
SF-268 CNS = test system: SF-268 CNS
M14 melanoma = test system: M14 melanoma
NCI-H460 lung = test system: NCI-H460 lung
HT29 colon = test system: HT29 colon
NCI-H226 lung = test system: NCI-H226 lung
LOX IMVI melanoma = test system: LOX IMVI melanoma

Structure (SMILES) | TGI (786-0 renal) [µM] | TGI (SNB-75 CNS) [µM] | TGI (OVCAR-4 ovarian) [µM] | TGI (NCI-H23 lung) [µM] | TGI (TK-10 renal) [µM] | TGI (SF-268 CNS) [µM] | TGI (M14 melanoma) [µM] | TGI (NCI-H460 lung) [µM] | TGI (HT29 colon) [µM] | TGI (NCI-H226 lung) [µM] | TGI (LOX IMVI melanoma) [µM]
CNC(=O)OCC1=C(COC(=O)NC)C(C)N(c2ccc(OC)cc2)C1 (centres undefined) | > 100 | > 100 | > 100 | > 100 | 73 | > 100 | > 100 | > 100 | > 100 | 6.21 | > 100
COC(=O)C1CCC(=O)N1C(c1ccccc1)c1ccc(OC)c(OC)c1 (centres undefined) | > 100 | > 100 | > 100 | > 100 | > 100 | > 100 | > 100 | > 100 | > 100 | > 100 | > 100
Cc1cc(O)c2c(=O)c3ccccc3[nH]c2c1 | > 100 | 93.6 | 75.8 | > 100 | > 100 | > 100 | 52.6 | > 100 | 38 | 94.3 | 64.3
CC(=O)NC1=C(NCCC(C)C)C(=O)c2ccccc2C1=O | > 50 | > 50 | > 50 | > 50 | > 50 | > 50 | > 50 | > 50 | > 50 | > 50 | > 50
CC(C)/C(Cl)=N\OC(=O)Nc1ccc(S(N)(=O)=O)cc1 | 31 | 25.4 | 40.1 | 37.8 | 31.8 | 51.7 | 22.1 | 41.6 | 48.4 | 45.5 | 7
COc1cc(/C=C/C(=N\NS(=O)(=O)c2ccc(C)cc2)c2sc(NNC(C)=O)nc2C)ccc1O | > 100 | > 100 | > 100 | > 100 | > 100 | > 100 | > 100 | > 100 | > 100 | > 100 | > 100
Cc1cccc(/C=N/NC(=S)Nc2ccccc2)n1 | 9.14 | 32.3 | > 90.4 | > 72.7 | > 95.3 | > 100 | 8.05 | 9.13 | > 100 | > 25 | 21.4
C[n+]1c2ccccc2c(/C=N\NS(=O)(=O)c2ccc(O)c(C(=O)O)c2)c2ccccc21 | > 100 | > 100 | > 100 | > 100 | > 100 | > 100 | > 100 | > 100 | > 100 | > 100 | > 100
CCC1(O)CC2CC(=O)OC2C1O (centres undefined) | > 100 | > 100 | > 100 | > 100 | > 100 | > 100 | > 100 | > 100 | > 100 | > 100 | > 100
COc1c(C)c(C/C=C(\C)CCCCO[Si](c2ccccc2)(c2ccccc2)C(C)(C)C)c(OC)c(OC)c1OC | 40.5 | > 46.4 | > 46.4 | 38.7 | > 31.6 | > 100 | > 46.4 | 25 | > 46.4 | > 100 | 58.3
COc1cc(/C=C2\S/C(=N/Nc3nc(-c4ccc(Br)cc4)cs3)NC2=O)cc(OC)c1OC | 26.5 | 77.2 | 85 | 25.7 | 36.6 | > 100 | 41.8 | 37.4 | 32.5 | 11.7 | 33.2
CC(C)CC(=O)OC[n+]1ccc(-c2c(COC(=O)NC(C)C)c(COC(=O)NC(C)C)c3n2CCC3)cc1 | > 100 | > 100 | > 100 | > 100 | > 100 | > 100 | > 100 | > 100 | > 100 | > 100 | > 100
O=C1/C(=C/c2ccc(O)cc2)CC/C1=C\c1ccc(O)cc1 | > 100 | > 100 | > 100 | > 100 | > 100 | > 100 | > 100 | > 100 | > 100 | > 100 | > 100
Oc1cc2c3c(c1)c1cc4c(cc1c[n+]3CC2)OCO4 | > 24.4 | 26.3 | > 48.6 | 13.3 | > 75.7 | 8.9 | > 100 | > 23.9 | > 42.2 | 17.2 | 18.4
CC(=O)Nc1ccc(-c2nnc(SCC(=O)Nc3ccc([N+](=O)[O-])cc3)o2)cc1 | 23.7 | 27.6 | 26.3 | 25 | 27.9 | 27.7 | 26.9 | 29.1 | 27.3 | 29.5 | 18.1
CN1CCN([C@H]2C[C@H]3[C@@H]4CC=C5C[C@@H](O)CC[C@]5(C)[C@H]4CC[C@]3(C)C2=O)CC1 | > 100 | > 100 | > 100 | > 100 | > 100 | > 100 | > 100 | > 100 | > 100 | > 100 | > 100
Cc1cccc2c(=O)cc(-c3ccccc3)[nH]c12 | > 100 | 9.26 | 35.7 | > 100 | > 100 | > 100 | > 100 | > 100 | > 100 | > 100 | > 100
O=S1(=O)NC(=NCc2c[nH]c3ccccc23)N(c2ccccc2)c2ccncc21 | > 100 | 43.3 | > 100 | > 100 | > 100 | 75.6 | > 100 | > 100 | > 100 | > 100 | > 100
Cc1cc(=O)[nH]c(NN2C(Cl)C(=O)C2c2ccccc2O)n1 (centres undefined) | > 100 | > 76.2 | > 100 | > 100 | > 100 | > 100 | > 34.7 | > 100 | > 100 | 9.16 | > 100
